The assay has as its target T1, LRRK2(G2019S mutation, GST-LRRK2(amino acids 970-2527)) (Homo sapiens, UniProt Q5S007, G2019S).
T1 construct: GST-LRRK2(amino acids 970-2527); GST (N); purchased Life Technologies Corporation
In words: LRRK2 Km ATP LanthaScreen Assay. The assay is classed as biochemical. As for the experimental part: Unless otherwise noted, all LRRK2 IC50 data presented in tables refers to the LRRK2 Km ATP LanthaScreen™ Assay that is described in the Biological Assay section.
The data presented for the 5 mM and Km ATP LanthaScreen™ Assay represents mean IC50 values based on several test results and may have reasonable. deviations depending on the specific conditions and reagents used. Reagents for the LRRK2 5 mM and Km ATP LanthaScreen™ Assay were purchased from Life Technologies Corporation.
Results are analysed using Assay Data Analyzer.

[1] abbreviates: Km ATP LanthaScreen Assay, LRRK2 G2019S, mean IC50 values, read-out: LRRK2 IC50.
Where [2] appears, read: Km ATP LanthaScreen Assay; LRRK2 G2019S; mean IC50 values; Examples 185-215; read-out: LRRK2 IC5).
[3] abbreviates: Km ATP LanthaScreen, mean IC50 of several tests, read-out: LRRK2 IC50.

Read-outs that look alike come from different tables or passages of the source.

T1 sequence (Q5S007 970-2527 G2019S): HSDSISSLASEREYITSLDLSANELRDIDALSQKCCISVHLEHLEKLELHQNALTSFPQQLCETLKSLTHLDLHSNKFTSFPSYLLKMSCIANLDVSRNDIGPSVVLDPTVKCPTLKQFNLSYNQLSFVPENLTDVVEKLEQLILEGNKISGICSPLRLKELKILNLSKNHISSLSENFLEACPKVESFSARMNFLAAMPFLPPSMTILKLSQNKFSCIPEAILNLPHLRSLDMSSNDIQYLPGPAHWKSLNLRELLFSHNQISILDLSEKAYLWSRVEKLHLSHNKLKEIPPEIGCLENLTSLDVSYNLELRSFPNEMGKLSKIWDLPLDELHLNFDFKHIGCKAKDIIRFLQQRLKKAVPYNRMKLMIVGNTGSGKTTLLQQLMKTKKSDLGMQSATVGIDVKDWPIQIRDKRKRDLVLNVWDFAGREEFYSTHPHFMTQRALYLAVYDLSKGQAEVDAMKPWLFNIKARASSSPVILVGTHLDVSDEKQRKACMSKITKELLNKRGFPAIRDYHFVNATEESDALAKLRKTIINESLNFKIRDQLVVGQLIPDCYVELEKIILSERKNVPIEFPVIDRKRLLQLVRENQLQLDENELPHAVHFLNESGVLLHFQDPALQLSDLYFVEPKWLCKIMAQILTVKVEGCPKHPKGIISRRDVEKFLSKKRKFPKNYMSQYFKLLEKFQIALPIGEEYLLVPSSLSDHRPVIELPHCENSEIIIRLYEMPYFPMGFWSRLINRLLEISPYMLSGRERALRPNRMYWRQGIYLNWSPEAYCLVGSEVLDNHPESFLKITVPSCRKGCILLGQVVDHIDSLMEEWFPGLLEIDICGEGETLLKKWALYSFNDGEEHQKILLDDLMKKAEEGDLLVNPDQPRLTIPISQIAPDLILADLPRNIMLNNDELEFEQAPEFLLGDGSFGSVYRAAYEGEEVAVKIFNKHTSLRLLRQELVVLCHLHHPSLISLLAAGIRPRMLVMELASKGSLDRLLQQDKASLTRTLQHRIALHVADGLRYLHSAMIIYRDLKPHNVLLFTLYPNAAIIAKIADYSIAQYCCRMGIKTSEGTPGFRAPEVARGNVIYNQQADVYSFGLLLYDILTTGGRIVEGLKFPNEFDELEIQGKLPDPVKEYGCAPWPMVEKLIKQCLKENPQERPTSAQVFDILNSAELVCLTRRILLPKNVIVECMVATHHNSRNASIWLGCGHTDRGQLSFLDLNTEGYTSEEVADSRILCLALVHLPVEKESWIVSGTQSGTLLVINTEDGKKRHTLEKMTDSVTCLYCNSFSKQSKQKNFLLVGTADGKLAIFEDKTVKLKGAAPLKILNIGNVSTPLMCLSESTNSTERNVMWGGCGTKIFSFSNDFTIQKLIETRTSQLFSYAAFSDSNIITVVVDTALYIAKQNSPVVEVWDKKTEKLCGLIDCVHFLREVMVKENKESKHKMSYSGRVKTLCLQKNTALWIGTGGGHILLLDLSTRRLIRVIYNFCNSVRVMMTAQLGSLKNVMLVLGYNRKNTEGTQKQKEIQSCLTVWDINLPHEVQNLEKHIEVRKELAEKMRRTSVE

As to `CC(C)Oc1ccc2[nH]nc(-c3ccnc(NC(=O)CCc4cnn(C)c4)c3)c2c1` [Example 162], the IC50 under setting [1] was 27.2 nM.

As to `CCOc1ccc2[nH]nc(-c3ccnc(N4CCC4)c3)c2c1` [Example 230], the IC50 under setting [1] amounted to 29.4 nM.

`FC1CCN(CCCNc2cc(-c3n[nH]c4ccccc34)ccn2)C1` (stereo not drawn) [Example 62]: the IC50 under setting [1] was found to be 46 nM.

With `CC(C)Oc1ccc2[nH]nc(-c3ccnc(N4CCN(c5ccccc5)C(=O)C4)c3)c2c1` [Example 199], the IC50 under setting [2] worked out at 8.9 nM.

Consider `CCCOc1ccc2[nH]nc(-c3ccnc(N4CCCCC4)c3)c2c1` [Example 300], for which the IC50 under setting [3] was found to be 31 nM.

Turning to `c1ccc2c(c1)CN(c1cc(-c3n[nH]c4ccccc34)ccn1)C2` [Example 7], the IC50 under setting [1] amounted to 87 nM.

For `Clc1cnc(-c2ccc3[nH]nc(-c4ccnc(N5CCOCC5)c4)c3c2)nc1` [Example 334], the IC50 under setting [3] is 52 nM.

Take `O=C(O)[C@@H]1CCCN(c2cc(-c3n[nH]c4ccccc34)ccn2)C1` [Example 52]: the IC50 under setting [1] is 31 nM.

With `CN(C)c1cc(-c2n[nH]c3ccc(Nc4cccc(S(C)(=O)=O)c4)cc23)ccn1` [Example 109], the IC50 under setting [1] stood at 34 nM.

As for `c1ccc2c(-c3ccnc(N4CCSCC4)c3)n[nH]c2c1` [Example 12], under setting [1], the IC50 was 46 nM.

Take `c1ccc(C2CCN(c3cc(-c4n[nH]c5ccccc45)ccn3)CC2)nc1` [Example 22]: the IC50 under setting [1] stood at 20 nM.

Take `c1ccc2c(-c3ccnc(NCCN4CCOCC4)c3)n[nH]c2c1` [Example 73]: the IC50 under setting [1] came to 35 nM.

Turning to `CC(C)Oc1ccc2[nH]nc(-c3ccnc(N4CCC(c5ccncc5)C4)c3)c2c1` (stereo not drawn) [Example 175], the IC50 under setting [1] amounted to 2.2 nM.

For the molecule `c1cc(-c2n[nH]c3ccc(CN4CCCCC4)cc23)cc(N2CCOCC2)n1` [Example 88], the IC50 under setting [1] is 164 nM.

As to `Cn1cc(-c2ccc3[nH]nc(-c4ccnc(N5CCc6oc(C7CC7)nc6C5)c4)c3c2)cn1` [Example 272], the IC50 under setting [3] came to 5.8 nM.

In the case of `Oc1cc(-c2ccc3[nH]nc(-c4ccnc(N5CCOCC5)c4)c3c2)ccn1` [Example 100], the IC50 under setting [3] was determined as 3.4 nM.

With `Cn1cc(-c2ccc3[nH]nc(-c4ccnc(N5CCOCC5)c4)c3c2)nn1` [Example 340], the IC50 under setting [3] was 1.1 nM.

Turning to `CO[C@H]1CN(c2cc(-c3n[nH]c4ccc(OC(C)C)cc34)ccn2)C[C@@H]1O` [Example 172], under setting [1], the IC50 was determined as 27.1 nM.

Regarding `CN1CCC(CN(C)c2cc(-c3n[nH]c4ccccc34)ccn2)CC1` [Example 50], the IC50 under setting [1] turned out to be 40 nM.

With `Cc1ncc(-c2cc3c(-c4ccnc(N5CC(F)C5)c4)n[nH]c3cc2F)n1C` [Example 310], under setting [3], the IC50 was found to be 95 nM.

As for `CC(C)Oc1ccc2[nH]nc(-c3ccnc(N4CCOC4=O)c3)c2c1` [Example 303], the IC50 under setting [3] is 16 nM.

For the molecule `c1ccc(-c2ccc3[nH]nc(-c4ccnc(N5CCOCC5)c4)c3c2)nc1` [Example 99], the IC50 under setting [3] turned out to be 13.7 nM.

For the molecule `CC(C)Oc1ccc2[nH]nc(-c3ccnc(N4CCS(=O)(=O)c5ccccc5C4)c3)c2c1` [Example 186], under setting [2], the IC50 was 154 nM.

In the case of `CC(C)Oc1ccc2[nH]nc(-c3ccnc(NCC4CC4)c3)c2c1` [Example 134], under setting [1], the IC50 came out at 2 nM.

With `c1ccc(-c2ccc3c(-c4ccnc(N5CCOCC5)c4)n[nH]c3c2)cc1` [Example 125], under setting [3], the IC50 amounted to 34 nM.

In the case of `Cn1cc(-c2ccc3[nH]nc(-c4ccnc(N5CCN(c6nnc(C7CC7)o6)CC5)c4)c3c2)cn1` [Example 276], the IC50 under setting [3] stood at 2.7 nM.

Take `COc1ccc2[nH]nc(-c3ccnc(N4CCOCC4)c3)c2c1` [Example 79]: the IC50 under setting [3] came out at 7.4 nM.

As to `CC1CN(c2cc(-c3n[nH]c4ccccc34)ccn2)CC(C)O1` (stereo not drawn) [Example 31], the IC50 under setting [1] stood at 12 nM.

Turning to `Cc1cc(CC(=O)Nc2cc(-c3n[nH]c4ccc(OC(C)C)cc34)ccn2)on1` [Example 155], the IC50 under setting [1] was determined as 13.4 nM.

Consider `CC(C)Oc1ccc2[nH]nc(-c3ccnc(N4CCC(CCN)CC4)c3)c2c1` [Example 382], for which the IC50 under setting [3] is 6.8 nM.

Consider `FC(F)(F)Oc1ccc2[nH]nc(-c3ccnc(N4CCN(C5CC5)CC4)c3)c2c1` [Example 244], for which the IC50 under setting [1] was found to be 188 nM.

For the molecule `CC(C)Oc1ccc2[nH]nc(-c3ccnc(NC(=O)c4ccc(C#N)cc4)c3)c2c1` [Example 143], the IC50 under setting [1] was 113 nM.

`CCOc1ccc2[nH]nc(-c3ccnc(N4CCC5OCCC54)c3)c2c1` (stereo not drawn) [Example 220]: the IC50 under setting [1] came out at 22.6 nM.

Consider `CC(C)Oc1ccc2[nH]nc(-c3ccnc(NCC4CCCO4)c3)c2c1` (stereo not drawn) [Example 135], for which the IC50 under setting [1] was determined as 3.2 nM.

As to `COCCNc1cc(-c2n[nH]c3ccc(OC(C)C)cc23)ccn1` [Example 292], under setting [3], the IC50 was determined as 5.9 nM.

Take `CC(C)Oc1ccc2[nH]nc(-c3ccnc(NC(=O)c4ccc5c(c4)C(=O)NC5)c3)c2c1` [Example 145]: the IC50 under setting [1] came to 52 nM.

`c1cc(-c2n[nH]c3ccc(-c4cncs4)cc23)cc(N2CCOCC2)n1` [Example 327]: the IC50 under setting [3] is below 0.6 nM.

With `c1ccc2c(-c3ccnc(N4CCC(CN5CCOCC5)CC4)c3)n[nH]c2c1` [Example 40], the IC50 under setting [1] is 28 nM.

With `CCOc1ccc2[nH]nc(-c3ccnc(N4CCC(F)(F)C4)c3)c2c1` [Example 223], under setting [1], the IC50 turned out to be 13.5 nM.

Consider `CC(C)Oc1ccc2[nH]nc(-c3ccnc(NC(=O)C4CC45CCCC5)c3)c2c1` (stereo not drawn) [Example 160], for which, under setting [1], the IC50 amounted to 140 nM.

For `c1ccc2c(-c3ccnc(N4CCC(N5CCCC5)CC4)c3)n[nH]c2c1` [Example 29], the IC50 under setting [1] turned out to be 45 nM.

For the molecule `CC(C)Oc1ccc2[nH]nc(-c3ccnc(NC(=O)c4ccccn4)c3)c2c1` [Example 144], the IC50 under setting [1] was determined as 29.2 nM.

On to `CN(C)C(=O)CN1CCN(c2cc(-c3n[nH]c4ccccc34)ccn2)CC1` [Example 65], for which, under setting [1], the IC50 worked out at 6.8 nM.

On to `COCCOc1ccc2[nH]nc(-c3ccnc(N4CCN(C)C(=O)C4)c3)c2c1` [Example 368], for which the IC50 under setting [3] is 30 nM.

In the case of `c1ccc(N2CCN(c3cc(-c4n[nH]c5ccccc45)ccn3)CC2)cc1` [Example 11], the IC50 under setting [1] came to 49 nM.

Take `CC(C)Oc1ccc2[nH]nc(-c3ccnc(N4CCN(CC5CC5)CC4)c3)c2c1` [Example 211]: under setting [2], the IC50 is 6.2 nM.

Turning to `COC1CN(c2cc(-c3n[nH]c4ccc(OC(C)C)cc34)ccn2)C1` [Example 183], the IC50 under setting [1] came out at 5.3 nM.

On to `O=C1CCC(CNc2cc(-c3n[nH]c4ccccc34)ccn2)N1` (stereo not drawn) [Example 44], for which the IC50 under setting [1] stood at 26 nM.

In the case of `FC(F)(F)Oc1ccc2[nH]nc(-c3ccnc(N4CCCCC4)c3)c2c1` [Example 232], the IC50 under setting [1] was determined as 279 nM.

On to `CN1CCN(c2cc(-c3n[nH]c4ccccc34)ccn2)CC1` [Example 8], for which the IC50 under setting [1] was 42 nM.

On to `CC(C)Oc1ccc2[nH]nc(-c3ccnc(NC(=O)C4CC4c4cncnc4)c3)c2c1` (stereo not drawn) [Example 158], for which the IC50 under setting [1] worked out at 30.9 nM.

For `F[C@@H]1CCN(c2cc(-c3n[nH]c4ccc(OC(F)(F)F)cc34)ccn2)C1` [Example 240], the IC50 under setting [1] turned out to be 206 nM.

As to `CC(C)Oc1ccc2[nH]nc(-c3ccnc(NC4CC4)c3)c2c1` [Example 137], the IC50 under setting [1] is 24.3 nM.

Turning to `OC1(c2ccncc2)CCN(c2cc(-c3n[nH]c4ccccc34)ccn2)CC1` [Example 25], under setting [1], the IC50 worked out at 21 nM.

With `Oc1ccc2[nH]nc(-c3ccnc(N4CCOCC4)c3)c2c1` [Example 78], the IC50 under setting [3] was 5.3 nM.

As for `OC1CCN(c2cc(-c3n[nH]c4ccccc34)ccn2)CC1` [Example 10], the IC50 under setting [1] amounted to 24 nM.

For `CC(C)Oc1ccc2[nH]nc(-c3ccnc(N4CC(O)(C(F)(F)F)C4)c3)c2c1` [Example 182], under setting [1], the IC50 turned out to be 10.8 nM.

Values taken from patent US9440952B2, “Compounds inhibiting leucine-rich repeat kinase enzyme activity” (Merck Sharp & Dohme Corp., priority 2013, dated 2016).
